Experimental data reported in patent US7087631B2, “Aryltetrazole compounds, and compositions thereof” (Inotek Pharmaceuticals Corporation, priority 2002, dated 2006).

Key:
[1] = system: severe hemorrhagic shock; conditions: canine, cited from earlier work; for benefit (survival): given alone after shock had been produced
[2] = system: hemorrhagic shock; conditions: canine model of hemorrhagic shock; cited from earlier work
[3] = system: thioacetamide model of hepatic failure; experiment: Toxic liver injury model (thioacetamide model of hepatic failure), serum AST; assay type: in vivo; conditions: mice, thioacetamide 400 mg/kg i.p., mean ±SEM (n=7-10)
Method: Illustrative 5-Aryltetrazole Compounds exert hepatoprotective effects in a thioacetamide model of hepatic failure. […] […] Results are expressed as percent inhibtion, mean ±SEM (n=7-10). Studies were conducted as described in Biochim. Biophys. Acta. 1536(1):21-30 (2001).

[4] = system: collagen-induced arthritis; experiment: Collagen-induced arthritis; assay type: in vivo; conditions: mice; for % Incidence / Mean Severity: collagen-induced arthritis
Method: An illustrative 5-Aryltetrazole Compound exerts protective effects in a model of collagen-induced arthritis in mice. Results are expressed as incidence and severity over time. Studies were conducted as described in Inflamm. Res. 50(11):561-569 (2001). The results illustrate that the administration of Compound JO, an illustrative 5-Aryltetrazole Compound, reduced incidence of collagen-induced arthritis in mice.

[5] = system: gut ischemia reperfusion; experiment: Gut ischemia reperfusion-induced hyperpermeability and mortality; assay type: in vivo; conditions: mice, 30 mg/kg
Method: Illustrative 5-Aryltetrazole Compounds exert protective effects in various models of organ ischemia and reperfusion. For example, intraperitoneal administration of illustrative 5-Aryltetrazole Compounds retards the progression of gut ischemia reperfusion-induced hyperpermeability and mortality in mice. Results are expressed as % decrease in gut hyperpermeability and as mortality as observed after 6 hours and 2 days of reperfusion. Studies were conducted as described in Shock, 14(2): 134-141 (2000). There was a notable dose-dependent effect on gut hyperpermeability and there was an improvement in survival rate, as tested at the highest dose of both levels.

[6] = molecular target: xanthine oxidase (Homo sapiens, UniProt P47989); experiment: Xanthine oxidase inhibitory activity, 96 well plate, kinetic reading at 295 nm; assay type: biochemical
xanthine oxidase, sequence (P47989 whole entry, species assumed): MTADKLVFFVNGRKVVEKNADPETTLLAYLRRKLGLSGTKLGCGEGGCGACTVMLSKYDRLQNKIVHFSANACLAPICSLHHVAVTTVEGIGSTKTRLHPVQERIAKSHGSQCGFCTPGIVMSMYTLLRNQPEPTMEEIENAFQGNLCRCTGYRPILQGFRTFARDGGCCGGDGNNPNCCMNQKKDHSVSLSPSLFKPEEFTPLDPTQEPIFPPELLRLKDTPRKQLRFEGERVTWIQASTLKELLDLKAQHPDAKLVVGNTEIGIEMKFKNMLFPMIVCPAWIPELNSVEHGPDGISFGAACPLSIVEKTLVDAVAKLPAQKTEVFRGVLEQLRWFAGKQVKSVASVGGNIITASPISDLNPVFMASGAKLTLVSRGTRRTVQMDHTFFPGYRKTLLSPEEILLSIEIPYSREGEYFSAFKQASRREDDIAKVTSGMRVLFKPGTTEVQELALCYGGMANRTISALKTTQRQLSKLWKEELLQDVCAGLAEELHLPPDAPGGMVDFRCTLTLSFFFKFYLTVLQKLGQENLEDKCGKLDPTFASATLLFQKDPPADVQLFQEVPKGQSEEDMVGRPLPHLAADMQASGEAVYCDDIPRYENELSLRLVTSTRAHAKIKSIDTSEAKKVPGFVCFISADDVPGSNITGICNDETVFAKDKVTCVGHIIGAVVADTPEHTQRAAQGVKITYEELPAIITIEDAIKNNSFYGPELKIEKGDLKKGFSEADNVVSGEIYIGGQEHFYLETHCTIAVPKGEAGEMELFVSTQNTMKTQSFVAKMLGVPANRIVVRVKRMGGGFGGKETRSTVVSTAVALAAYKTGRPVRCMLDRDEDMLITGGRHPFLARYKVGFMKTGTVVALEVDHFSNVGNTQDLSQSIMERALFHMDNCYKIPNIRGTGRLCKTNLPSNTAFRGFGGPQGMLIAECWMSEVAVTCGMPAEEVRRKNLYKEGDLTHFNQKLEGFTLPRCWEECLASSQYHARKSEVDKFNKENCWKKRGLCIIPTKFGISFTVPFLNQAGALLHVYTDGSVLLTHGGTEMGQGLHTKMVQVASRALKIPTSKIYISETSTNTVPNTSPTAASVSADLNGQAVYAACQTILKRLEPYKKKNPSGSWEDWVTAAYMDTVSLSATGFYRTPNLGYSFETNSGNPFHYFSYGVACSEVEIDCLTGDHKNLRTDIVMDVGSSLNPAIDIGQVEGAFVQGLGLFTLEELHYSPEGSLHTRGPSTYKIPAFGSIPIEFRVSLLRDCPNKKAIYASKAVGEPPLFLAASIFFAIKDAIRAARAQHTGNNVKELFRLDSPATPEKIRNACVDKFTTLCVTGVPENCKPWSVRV

Compound: Oc1ncnc2[nH]ncc12 [allopurinol]
- benefit (survival) [1]: no benefit
- increase in survival ([1]; pre-treatment): 6 fold
- survival (result in words) [2]: significantly improved survival

Compound: O=c1[nH]cnc2nc[nH]c12 [hypoxanthine]
- benefit (survival) [1]: no benefit

Compound: CC(C)(C)c1ccc(NC(=O)c2ccc(-c3nnn[nH]3)cc2)cc1 [Compound JO]
- Percent Inhibition of Serum AST Levels ([3]; single oral dose 3 mg/kg): 24 ± 9%
- Percent Inhibition of Serum AST Levels ([3]; single oral dose 10 mg/kg): 36 ± 12%
- incidence of collagen-induced arthritis (result in words) ([4]; after 33 days, versus untreated mice): significant decrease
- % Incidence ([4]; day 25): 20%
- Mean Severity ([4]; day 25): 0
- % Incidence ([4]; day 27): 35%
- Mean Severity ([4]; day 27): 0
- % Incidence ([4]; day 29): 45%
- Mean Severity ([4]; day 29): 3
- % Incidence ([4]; day 31): 75%
- Mean Severity ([4]; day 31): 8
- % Incidence ([4]; day 33): 85%
- Mean Severity ([4]; day 33): 8
- collagen-induced arthritis (result in words) ([4]; summary): inhibits collagen-induced arthritis
- Survival % (6 h) ([5]; 6 hours of reperfusion, control 60): 87%
- Survival % (2 days) ([5]; 2 days of reperfusion, control 0): 13%
- Gut Permeability ([5]; intraperitoneal, control 100%): 39%
- PERCENT XANTHINE OXIDASE INHIBITION ([6]; compound concentration 0.03 μM): 18%
- PERCENT XANTHINE OXIDASE INHIBITION ([6]; compound concentration 0.1 μM): 36%
- PERCENT XANTHINE OXIDASE INHIBITION ([6]; compound concentration 1 μM): 83%
